Source: publication PMC10484568 (Chemical communications (Cambridge, England), 2019)
Converted amounts (≈) assume the structure as drawn. Where a SMILES comes first, the peptide text is derived from it. Bridges are numbered along the chain shown (N, C = ends). [ ]: non-standard residue; d: D form. The star is where a group is joined. X1 = CC[C@H](C)CCCCC(=O)*; Dab = NCC[C@H](N)C(=O)O

Columns and labels:
Assay type in all cases: cell-based
MRSA = tested on: MRSA
MRSE = tested on: MRSE
E. coli = tested on: E. coli
P. aeruginosa = tested on: P. aeruginosa
Hemolytic activity = assay: Hemolytic activity

## CC[C@H](C)CCCCC(=O)N[C@@H](CCN)C(=O)N[C@H](C(=O)N[C@@H](CCN)C(=O)N[C@H]1CCNC(=O)[C@H]([C@@H](C)O)NC(=O)[C@H](CCN)NC(=O)[C@H](CCN)NC(=O)[C@H](CC(C)C)NC(=O)[C@@H](CC(C)C)NC(=O)[C@H](CCN)NC1=O)[C@@H](C)O [Colistin, colistin] (X1-[Dab]T[Dab][Dab][Dab][dL]L[Dab][Dab]T; lactam 4-C (inferred); N-terminus assumed)
MRSA
  Activity against MRSA (in words): not active
MRSA; multidrug resistant strain
  MIC MRSA (Gram positive): >50 µg/mL
MRSE
  MIC MRSE (Gram positive): > 50 µg/mL
E. coli
  MIC E. coli (Gram negative): 0.5 µg/mL (≈ 0.428 µM)
P. aeruginosa
  MIC P. aeruginosa (Gram negative): 0.5 µg/mL (≈ 0.428 µM)
Hemolytic activity
  HC50: > 250 µg/mL
